According to US8222270B2 (Medicis Pharmaceutical Corporation, priority 2008, dated 2012):

Tests used:
[1] = Method: A combined fertility and peri- and post-natal development study was conducted in rats.
[2] = Topical pharmacokinetics, 5 mg/kg three times per week for 4 weeks; conditions: rat, in vivo
[3] = Repeat dose oral toxicity, 6 months; type: in vivo, rats; conditions: dosed daily for 6 months
Method: The adverse effects observed for the high doses (10-30 mg/kg) in repeat dose oral toxicity studies in rats and monkeys could be related to exaggerated pharmacological effects of excessive cytokines induction and lymphoid stimulation: reduced body weight gains, anaemia, serum protein changes and death. […] An oral no-adverse-effect level of 3 mg/kg/day was determined in both rats and monkeys dosed daily for 6 months.

[4] = Stability of calibration standards in spent receiver fluid; type: physicochemical; conditions: vs T = 0

Q: Which “Exposure multiple at dose without teratogenicity” value ([1]; 3 mg/kg/day) does the source give for `CC(C)Cn1cnc2c(N)nc3ccccc3c21` [imiquimod, 1-(2-methylpropyl)-1H-imidazo[4,5-c]quinolin-4-amine] here?
A: Its value is 27 ×MRHD based on AUC comparisons.

Q: And the “Dose up to which no impairment of reproduction was demonstrated” value ([1]; daily oral, throughout mating, gestation, parturition and lactation)?
A: Its value is 8 times recommended human dose on a mg/m^2 basis.

Q: And the “Dose at which bent limb bones were noted in the F1 fetuses” value ([1]; in the absence of maternal toxicity)?
A: The value was 6 mg/kg/day.

Q: What about the “Dose with no treatment related effects on teratogenicity” value ([1]; oral) of the same compound?
A: The value was 3 mg/kg/day.

Q: And the Imiquimod in serum [2]?
A: The Imiquimod in serum was “not quantifiable”.

Q: And the Oral no-adverse-effect level [3]?
A: Its Oral no-adverse-effect level is 3 mg/kg/day.

Q: What about the “48 h % recovered in Spent receiver fluid” value ([4]; Standard 5.275 μg/ml, Epidermal sheet + placebo, 37° C.) of the same compound?
A: Its value is 86.828%.

Q: What about the “48 h % recovered in Spent receiver fluid” value ([4]; Standard 5.275 μg/ml, Epidermal sheet + placebo, Fridge) of the same compound?
A: The value was 88.881%.

Q: And the “48 h % recovered in Spent receiver fluid” value ([4]; Standard 5.275 μg/ml, Epidermal sheet + placebo, RT)?
A: The value was 86.540%.

Q: And the “48 h % recovered in Spent receiver fluid” value ([4]; Standard 5.275 μg/ml, Epidermal sheet, 37° C.)?
A: The value was 85.995%.

Q: What about the “48 h % recovered in Spent receiver fluid” value ([4]; Standard 5.275 μg/ml, Epidermal sheet, Fridge) of the same compound?
A: Its value is 88.938%.

Q: And the “48 h % recovered in Spent receiver fluid” value ([4]; Standard 5.275 μg/ml, Epidermal sheet, RT)?
A: The value was 91.447%.

Q: And the “48 h % recovered in Spent receiver fluid” value ([4]; Standard 5.275 μg/ml, Full thickness + placebo, 37° C.)?
A: Its value is 86.134%.

Q: What about the “48 h % recovered in Spent receiver fluid” value ([4]; Standard 5.275 μg/ml, Full thickness + placebo, Fridge) of the same compound?
A: The value was 90.260%.

Q: And the “48 h % recovered in Spent receiver fluid” value ([4]; Standard 5.275 μg/ml, Full thickness + placebo, RT)?
A: The value was 87.973%.

Q: What about the “48 h % recovered in Spent receiver fluid” value ([4]; Standard 5.275 μg/ml, Full thickness, 37° C.) of the same compound?
A: The value was 90.611%.

Q: And the “48 h % recovered in Spent receiver fluid” value ([4]; Standard 5.275 μg/ml, Full thickness, Fridge)?
A: Its value is 94.586%.

Q: What about the “48 h % recovered in Spent receiver fluid” value ([4]; Standard 5.275 μg/ml, Full thickness, RT) of the same compound?
A: The value was 95.232%.

Q: And the “48 h % recovered in Spent receiver fluid” value ([4]; Standard 42.2 μg/ml, Epidermal sheet + placebo, 37° C.)?
A: Its value is 95.095%.

Q: And the “48 h % recovered in Spent receiver fluid” value ([4]; Standard 42.2 μg/ml, Epidermal sheet + placebo, Fridge)?
A: Its value is 93.077%.

Q: What about the “48 h % recovered in Spent receiver fluid” value ([4]; Standard 42.2 μg/ml, Epidermal sheet + placebo, RT) of the same compound?
A: Its value is 92.904%.

Q: What about the “48 h % recovered in Spent receiver fluid” value ([4]; Standard 42.2 μg/ml, Epidermal sheet, 37° C.) of the same compound?
A: Its value is 89.641%.

Q: And the “48 h % recovered in Spent receiver fluid” value ([4]; Standard 42.2 μg/ml, Epidermal sheet, Fridge)?
A: Its value is 85.716%.

Q: What about the “48 h % recovered in Spent receiver fluid” value ([4]; Standard 42.2 μg/ml, Epidermal sheet, RT) of the same compound?
A: Its value is 86.340%.

Q: What about the “48 h % recovered in Spent receiver fluid” value ([4]; Standard 42.2 μg/ml, Full thickness + placebo, 37° C.) of the same compound?
A: The value was 86.439%.

Q: What about the “48 h % recovered in Spent receiver fluid” value ([4]; Standard 42.2 μg/ml, Full thickness + placebo, Fridge) of the same compound?
A: The value was 83.976%.

Q: And the “48 h % recovered in Spent receiver fluid” value ([4]; Standard 42.2 μg/ml, Full thickness + placebo, RT)?
A: The value was 84.144%.

Q: And the “48 h % recovered in Spent receiver fluid” value ([4]; Standard 42.2 μg/ml, Full thickness, 37° C.)?
A: Its value is 95.939%.

Q: And the “48 h % recovered in Spent receiver fluid” value ([4]; Standard 42.2 μg/ml, Full thickness, Fridge)?
A: Its value is 95.103%.

Q: And the “48 h % recovered in Spent receiver fluid” value ([4]; Standard 42.2 μg/ml, Full thickness, RT)?
A: Its value is 95.805%.

Q: And the “48 h % recovered in Spent receiver fluid” value ([4]; Standard 52.75 μg/ml, Epidermal sheet + placebo, 37° C.)?
A: The value was 86.906%.

Q: What about the “48 h % recovered in Spent receiver fluid” value ([4]; Standard 52.75 μg/ml, Epidermal sheet + placebo, Fridge) of the same compound?
A: The value was 85.635%.

Q: What about the “48 h % recovered in Spent receiver fluid” value ([4]; Standard 52.75 μg/ml, Epidermal sheet + placebo, RT) of the same compound?
A: The value was 88.169%.

Q: And the “48 h % recovered in Spent receiver fluid” value ([4]; Standard 52.75 μg/ml, Epidermal sheet, 37° C.)?
A: The value was 90.943%.

Q: What about the “48 h % recovered in Spent receiver fluid” value ([4]; Standard 52.75 μg/ml, Epidermal sheet, Fridge) of the same compound?
A: Its value is 87.669%.

Q: What about the “48 h % recovered in Spent receiver fluid” value ([4]; Standard 52.75 μg/ml, Epidermal sheet, RT) of the same compound?
A: Its value is 89.096%.

Q: And the “48 h % recovered in Spent receiver fluid” value ([4]; Standard 52.75 μg/ml, Full thickness + placebo, 37° C.)?
A: Its value is 93.779%.

Q: What about the “48 h % recovered in Spent receiver fluid” value ([4]; Standard 52.75 μg/ml, Full thickness + placebo, Fridge) of the same compound?
A: Its value is 91.776%.

Q: What about the “48 h % recovered in Spent receiver fluid” value ([4]; Standard 52.75 μg/ml, Full thickness + placebo, RT) of the same compound?
A: Its value is 92.027%.

Q: What about the “48 h % recovered in Spent receiver fluid” value ([4]; Standard 52.75 μg/ml, Full thickness, 37° C.) of the same compound?
A: Its value is 95.282%.

Q: What about the “48 h % recovered in Spent receiver fluid” value ([4]; Standard 52.75 μg/ml, Full thickness, Fridge) of the same compound?
A: Its value is 92.317%.

Q: What about the “48 h % recovered in Spent receiver fluid” value ([4]; Standard 52.75 μg/ml, Full thickness, RT) of the same compound?
A: Its value is 92.152%.

Q: And the “48 h % recovered in Spent receiver fluid” value ([4]; Standard 84.4 μg/ml, Epidermal sheet + placebo, 37° C.)?
A: Its value is 98.178%.

Q: What about the “48 h % recovered in Spent receiver fluid” value ([4]; Standard 84.4 μg/ml, Epidermal sheet + placebo, Fridge) of the same compound?
A: Its value is 95.620%.

Q: What about the “48 h % recovered in Spent receiver fluid” value ([4]; Standard 84.4 μg/ml, Epidermal sheet + placebo, RT) of the same compound?
A: The value was 96.033%.

Q: What about the “48 h % recovered in Spent receiver fluid” value ([4]; Standard 84.4 μg/ml, Epidermal sheet, 37° C.) of the same compound?
A: The value was 82.694%.

Q: What about the “48 h % recovered in Spent receiver fluid” value ([4]; Standard 84.4 μg/ml, Epidermal sheet, Fridge) of the same compound?
A: Its value is 81.350%.

Q: What about the “48 h % recovered in Spent receiver fluid” value ([4]; Standard 84.4 μg/ml, Epidermal sheet, RT) of the same compound?
A: Its value is 82.276%.

Q: And the “48 h % recovered in Spent receiver fluid” value ([4]; Standard 84.4 μg/ml, Full thickness + placebo, 37° C.)?
A: Its value is 85.629%.

Q: What about the “48 h % recovered in Spent receiver fluid” value ([4]; Standard 84.4 μg/ml, Full thickness + placebo, Fridge) of the same compound?
A: The value was 84.561%.

Q: And the “48 h % recovered in Spent receiver fluid” value ([4]; Standard 84.4 μg/ml, Full thickness + placebo, RT)?
A: The value was 84.421%.

Q: And the “48 h % recovered in Spent receiver fluid” value ([4]; Standard 84.4 μg/ml, Full thickness, 37° C.)?
A: Its value is 101.010%.

Q: What about the “48 h % recovered in Spent receiver fluid” value ([4]; Standard 84.4 μg/ml, Full thickness, Fridge) of the same compound?
A: Its value is 98.841%.

Q: What about the “48 h % recovered in Spent receiver fluid” value ([4]; Standard 84.4 μg/ml, Full thickness, RT) of the same compound?
A: Its value is 99.790%.

Q: And the “48 h % recovered in Spent receiver fluid” value ([4]; Standard 105.5 μg/ml, Epidermal sheet + placebo, 37° C.)?
A: The value was 84.903%.
